From US20220315578A1, “BRD9 BIFUNCTIONAL DEGRADERS AND THEIR METHODS OF USE” (NOVARTIS AG, priority 2019, published 2022)

Biological target: T1, BRD9-GFP (Homo sapiens, UniProt Q9H8M2)
T1 construct: CHYSEL (2A cis-acting hydrolase element) remnant after GFP; mCherry is split off as a separate protein (C); expressed in transfected cells; host or cells: HEK293A cells (Invitrogen R70507), lentiviral transduction with pLenti6-BRD9-GFP-CHYSEL-mCherry, blasticidin selection
T1 sequence (Q9H8M2 1-597): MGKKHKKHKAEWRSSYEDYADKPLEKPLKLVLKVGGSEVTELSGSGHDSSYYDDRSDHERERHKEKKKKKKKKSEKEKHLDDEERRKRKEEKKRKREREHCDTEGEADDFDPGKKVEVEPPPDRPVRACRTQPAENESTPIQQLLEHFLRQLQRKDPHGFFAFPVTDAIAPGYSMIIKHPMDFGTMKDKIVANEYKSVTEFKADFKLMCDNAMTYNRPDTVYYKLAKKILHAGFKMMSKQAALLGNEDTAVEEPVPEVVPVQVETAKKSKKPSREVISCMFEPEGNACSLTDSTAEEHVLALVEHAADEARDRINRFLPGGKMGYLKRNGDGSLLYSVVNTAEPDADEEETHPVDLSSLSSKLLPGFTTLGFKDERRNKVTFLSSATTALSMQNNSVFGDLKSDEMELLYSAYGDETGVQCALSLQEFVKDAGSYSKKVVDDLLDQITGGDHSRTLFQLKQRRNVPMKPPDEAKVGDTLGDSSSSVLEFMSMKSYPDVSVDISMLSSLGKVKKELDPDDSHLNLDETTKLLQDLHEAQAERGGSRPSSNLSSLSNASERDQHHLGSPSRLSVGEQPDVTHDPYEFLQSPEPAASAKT
Assay: BRD9-GFP protein abundance flow cytometry assay in HEK293A cells
Assay type: cell-based
Settings: HEK293A-BRD9-GFP-CHYSEL-mCherry cells; for BRD9 Deg Amax %: 24 h, % protein remaining at the concentration at which maximum degradation is seen; for DC50: 24 h at 37° C., 10-point 1:3 dilution, concentration at which 50% maximal degradation was observed
Summary of the method: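 HEK293A cells stably express bicistronic BRD9-GFP-CHYSEL-mCherry and received 24 h treatment at 37° C with a 10-point, 3-fold dilution series from […], in 0.1% DMSO and duplicate. Median GFP/mCherry ratio of 5,000 single cells by flow cytometry, normalized to mCherry-only cells (0%) and DMSO (100%), gave DC50 and Amax (% protein remaining).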

| BRD9 Deg Amax % [%] | DC50 [nM] | SMILES |
| --- | --- | --- |
| 19.45 | 12 | COc1cc(-c2cn(C)c(=O)c3cnccc23)ccc1OC1CCN(CC2CCN(C(=O)c3cccc(N4CCC(=O)NC4=O)c3)CC2)CC1 [Compound A11, 1-(3-(4-((4-(2-Methoxy-4-(2-methyl-1-oxo-1,2-dihydro-2,7-naphthyridin-4-yl)phenoxy)piperidin-1-yl)methyl)piperidine-1-carbonyl)phenyl)dihydropyrimidine-2,4(1H,3H)-dione] |
| 33.06 | 3 | COc1cc(-c2cn(C)c(=O)c(C)c2C)ccc1CN1CCN(CC2CCN(C(=O)c3ccc(Cl)c(N4CCC(=O)NC4=O)c3)CC2)CC1 [Compound A14, 1-(2-Chloro-5-(4-((4-(2-methoxy-4-(1,4,5-trimethyl-6-oxo-1,6-dihydropyridin-3-yl)benzyl)piperazin-1-yl)methyl)piperidine-1-carbonyl)phenyl)dihydropyrimidine-2,4(1H,3H)-dione] |
| 22.28 | 33 | Cn1cc(-c2cc(F)c(CCN3CCC(OC4CCN(CCn5cccc(CN6CCC(=O)NC6=O)c5=O)CC4)CC3)c(F)c2)c2ccncc2c1=O [Compound E27, 1-((1-(2-(4-((1-(2,6-difluoro-4-(2-methyl-1-oxo-1,2-dihydro-2,7-naphthyridin-4-yl)phenethyl)piperidin-4-yl)oxy)piperidin-1-yl)ethyl)-2-oxo-1,2-dihydropyridin-3-yl)methyl)dihydropyrimidine-2,4(1H,3H)-dione] |
| 10.72 | 54 | COc1ccc(C(=O)N2CCC(OC3CCN(Cc4c(OC)cc(-c5cc(C)c(=O)n(C)c5)cc4OC)CC3)CC2)cc1N1CCC(=O)NC1=O [Compound A1] |
| 14.46 | 5 | CCCn1cc(-c2ccc(CN3CC[C@@H](OC4CCN(C(=O)c5cccc(N6CCC(=O)NC6=O)c5)CC4)[C@H](F)C3)cc2)c(C)c(C)c1=O [Compound E5, 1-(3-(4-(((3R,4R)-1-(4-(4,5-dimethyl-6-oxo-1-propyl-1,6-dihydropyridin-3-yl)benzyl)-3-fluoropiperidin-4-yl)oxy)piperidine-1-carbonyl)phenyl)dihydropyrimidine-2,4(1H,3H)-dione] |
| 9.75 | 14 | COc1cc(-c2cn(C)c(=O)c3cnccc23)c(OC)cc1OC1CCN(CC2CCN(C(=O)c3ccc(OC)c(N4CCC(=O)NC4=O)c3)CC2)CC1 [Compound A20, 1-(5-(4-((4-(2,5-Dimethoxy-4-(2-methyl-1-oxo-1,2-dihydro-2,7-naphthyridin-4-yl)phenoxy)piperidin-1-yl)methyl)piperidine-1-carbonyl)-2-methoxyphenyl)dihydropyrimidine-2,4(1H,3H)-dione] |
| 19.40 | 6 | Cn1cc(-c2cc(F)c(CN3CCC(OC4CCN(CCn5cccc(CN6CCC(=O)NC6=O)c5=O)CC4)CC3)cc2F)c2ccncc2c1=O [Compound E1, 1-((1-(2-(4-((1-(2,5-difluoro-4-(2-methyl-1-oxo-1,2-dihydro-2,7-naphthyridin-4-yl)benzyl)piperidin-4-yl)oxy)piperidin-1-yl)ethyl)-2-oxo-1,2-dihydropyridin-3-yl)methyl)dihydropyrimidine-2,4(1H,3H)-dione] |
| 19.41 | 7 | CCCCn1cc(-c2cc(F)c(OC3CCN(CC4CCN(C(=O)c5ccc(OC)c(N6CCC(=O)NC6=O)c5)CC4)CC3)c(F)c2)c2ccncc2c1=O [Compound E49, 1-(5-(4-((4-(4-(2-butyl-1-oxo-1,2-dihydro-2,7-naphthyridin-4-yl)-2,6-difluorophenoxy)piperidin-1-yl)methyl)piperidine-1-carbonyl)-2-methoxyphenyl)dihydropyrimidine-2,4(1H,3H)-dione] |
| 13.14 | 4 | CCCCn1cc(-c2ccc(OC3CCN(CC4CCN(C(=O)c5ccc(OC)c(N6CCC(=O)NC6=O)c5)CC4)CC3)c(OC)c2)c2ccncc2c1=O [Compound B5, 1-(5-(4-((4-(4-(2-butyl-1-oxo-1,2-dihydro-2,7-naphthyridin-4-yl)-2-methoxyphenoxy)piperidin-1-yl)methyl)piperidine-1-carbonyl)-2-methoxyphenyl)dihydropyrimidine-2,4(1H,3H)-dione] |
| 17.02 | 3 | COc1cc(-c2cn(C)c(=O)c(C)c2C)cc(OC)c1OCC1CCN(CC2CCN(C(=O)c3ccc(Cl)c(N4CCC(=O)NC4=O)c3)CC2)CC1 [Compound A19, 1-(2-Chloro-5-(4-((4-((2,6-dimethoxy-4-(1,4,5-trimethyl-6-oxo-1,6-dihydropyridin-3-yl)phenoxy)methyl)piperidin-1-yl)methyl)piperidine-1-carbonyl)phenyl)dihydropyrimidine-2,4(1H,3H)-dione] |
| 13.46 | 2 | COc1ccc(C(=O)N2CCC(CN3CCC(Oc4ccc(-c5cn(C)c(=O)c6cnccc56)cc4)CC3)CC2)cc1N1CCC(=O)NC1=O [Compound A12, 1-(2-Methoxy-5-(4-((4-(4-(2-methyl-1-oxo-1,2-dihydro-2,7-naphthyridin-4-yl)phenoxy)piperidin-1-yl)methyl)piperidine-1-carbonyl)phenyl)dihydropyrimidine-2,4(1H,3H)-dione] |
| 16.66 | 19 | Cn1cc(-c2cc(F)c(CN3CCC(OC4CCN(CCn5cccc(CN6CCC(=O)NC6=O)c5=O)CC4)CC3)c(F)c2)c2ccncc2c1=O [Compound E18, 1-((1-(2-(4-((1-(2,6-difluoro-4-(2-methyl-1-oxo-1,2-dihydro-2,7-naphthyridin-4-yl)benzyl)piperidin-4-yl)oxy)piperidin-1-yl)ethyl)-2-oxo-1,2-dihydropyridin-3-yl)methyl)dihydro-pyrimidine-2,4(1H,3H)-dione] |
| 14.20 | 4 | COc1cc(-c2cn(C)c(=O)c3cnccc23)cc(OC)c1CCN1CCC(OC2CCN(C(=O)c3cccc(N4CCC(=O)NC4=O)c3)CC2)CC1 [Compound A40, 1-(3-(4-((1-(2,6-Dimethoxy-4-(2-methyl-1-oxo-1,2-dihydro-2,7-naphthyridin-4-yl)phenethyl)piperidin-4-yl)oxy)piperidine-1-carbonyl)phenyl)dihydropyrimidine-2,4(1H,3H)-dione] |
| 33.47 | 30 | CCCn1cc(-c2cc(F)c(CCN3CCC(OC4CCN(C(=O)c5ccc(OC)c(N6CCC(=O)NC6=O)c5)CC4)CC3)c(F)c2)c(C)c(C)c1=O [Compound E12, 1-(5-(4-((1-(4-(4,5-dimethyl-6-oxo-1-propyl-1,6-dihydropyridin-3-yl)-2,6-difluorophenethyl)piperidin-4-yl)oxy)piperidine-1-carbonyl)-2 methoxyphenyl)dihydropyrimidine-2,4(1H,3H)-dione] |
| 15.75 | 34 | COc1cc(-c2cn(C)c(=O)c3cnccc23)c(OC)cc1CN1CCC(OC2CCN(C(=O)c3ccc(C)c(N4CCC(=O)NC4=O)c3)CC2)CC1 [Compound A29, 1-(5-(4-((1-(2,5-Dimethoxy-4-(2-methyl-1-oxo-1,2-dihydro-2,7-naphthyridin-4-yl)benzyl)piperidin-4-yl)oxy)piperidine-1-carbonyl)-2-methylphenyl)dihydropyrimidine-2,4(1H,3H)-dione] |
